Experimental findings from patent US20090215710A1, “CARBOHYDRATE BASED TOLL-LIKE RECEPTOR (TLR) ANTAGONISTS” (RELIANCE LIFE SCIENCES PVT. LTD., priority 2007, published 2009) are described below.

Assay [1] relates to IL-6 mRNA. In words: IL-6 mRNA expression in LPS stimulated THP-1 cells (real-time PCR). The assay is classed as cell-based, human. Conditions: THP-1, LPS 250 ng/ml 1 hr. As for the experimental part:
(§1) To determine whether the suppressive effect of RSCL-0409 on the cytokine production occurs at mRNA expression level, quantitative real-time PCR was used to examine TNF-α and IL-6 mRNA expression in THP-1 cells stimulated with LPS. THP-1 cells (3×10^6 cells/well) were stimulated with 250 ng/ml LPS in the presence or absence of RSCL-0409 at indicated concentrations for the 1 hr. Total RNA was isolated from these cells and cDNA was synthesized. LPS treated cells acted as positive control. All quantitative real-time PCR (TaqMan™) primers and probes were obtained from Applied Biosystems (ABI), Weiterstadt, Germany. For detection of TNF-α, pre-developed assay reagents (Universal master mix as obtained from Applied Biosystems included all reagents including Taq-polymerase apart from specific primers and probes) were used. The PCR was performed utilizing 1 μl cDNA per reaction in triplicates of 25 μl volume on an ABI 7500 Realtime PCR machine using a 2-step PCR protocol.
(§2) Quantization of mRNA was performed using the comparative threshold cycle method and analysed using standard software and expressed in fold change. The fold change of TNF-α (FIG. 5a) and IL-6 (FIG. 5b) mRNA in treated cells over control was obtained after correction for the amount of β-actin. […] The expression levels of both TNF and IL-6 decreased following 1 hr pretreatment with RSCL-0409 in the presence of LPS. […]
(In general: Quantitative PCR measures a nucleic acid by following its amplification.)

In assay [2] the test system is NF-κB. In words: NF-κB activation and nuclear translocation in LPS stimulated THP-1 cells (FACS phospho p65, immunoblot). Type of assay: cell-based, human. As for the experimental part:
Further, for the detection of intracellular location of phospho NF-κB p65 subunits, 1 hr LPS-stimulated cells with and without pretreatment of RSCL-0409 (50 μM—FIG. 7b) were fixed with 4% paraformaldehyde in PBS for 30 min and washed with Fluorescence-activated cell sorting (FACS) buffer [2% Fetal calm serum (FCS) in 1× Phosphate buffered saline (PBS)]. Permeabilisation is done using 90% methanol. These cells were then treated with phospho p65 monoclonal antibody tagged with Alexa Fluor 488 (Cell Signaling Technology, Inc, Ma, USA) for 1 hr at 37° C., followed by washing FACS buffer. Cells were then resuspended in PBS and acquired in BD FACS Calibur.
The nuclear fractions were obtained from LPS stimulated THP-1 cells at the indicated times (FIG. 7c). Nuclear proteins electrophoresed were processed for immunoblots using a NF-κB specific antibody.

In assay [3] the test system is TNF-α mRNA. In words: TNF-α mRNA expression in LPS stimulated THP-1 cells (real-time PCR). Type of assay: cell-based, human. To be noted: THP-1, LPS 250 ng/ml 1 hr. The procedure: as §1, §2
The target in assay [4] is T1, TLR6 (Homo sapiens, UniProt Q9Y2C9).
T1 construct: endogenous in cells; host or cells: THP-1 monocytes and/or PBMCs
T1 sequence (Q9Y2C9 32-796): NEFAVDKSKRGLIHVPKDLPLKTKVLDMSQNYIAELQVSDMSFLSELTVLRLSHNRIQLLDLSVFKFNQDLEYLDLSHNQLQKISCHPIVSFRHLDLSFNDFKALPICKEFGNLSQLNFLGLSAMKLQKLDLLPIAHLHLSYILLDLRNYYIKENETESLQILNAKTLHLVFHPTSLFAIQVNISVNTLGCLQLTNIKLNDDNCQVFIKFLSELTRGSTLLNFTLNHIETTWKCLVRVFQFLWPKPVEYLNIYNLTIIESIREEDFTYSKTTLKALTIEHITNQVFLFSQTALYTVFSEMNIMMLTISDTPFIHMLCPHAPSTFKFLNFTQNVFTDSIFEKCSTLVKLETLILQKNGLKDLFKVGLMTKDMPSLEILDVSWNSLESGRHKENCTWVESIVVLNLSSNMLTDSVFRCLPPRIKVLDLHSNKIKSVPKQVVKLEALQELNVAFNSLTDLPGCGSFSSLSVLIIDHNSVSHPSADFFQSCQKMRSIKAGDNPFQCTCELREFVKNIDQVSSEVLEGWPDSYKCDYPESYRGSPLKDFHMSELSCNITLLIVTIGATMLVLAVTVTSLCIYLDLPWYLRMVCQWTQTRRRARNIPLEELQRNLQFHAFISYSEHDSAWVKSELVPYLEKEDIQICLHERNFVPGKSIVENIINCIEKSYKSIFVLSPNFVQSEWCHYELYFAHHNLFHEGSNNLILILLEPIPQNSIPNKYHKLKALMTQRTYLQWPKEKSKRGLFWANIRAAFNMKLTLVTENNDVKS
In words: TLR6 ligand induced TNF-α secretion (ELISA). Type of assay: cell-based. Conditions: cells treated with TLR6 ligand 75 ng/ml. The procedure: The present invention has checked the effect of various TLR ligands on THP-1 monocytes, PBMCs and their ability to activate and release TNF-α. For this purpose about 9 TLR ligands were used. These ligands were obtained from Apotech Cat; APO-54N-018-K100 and assayed for TNF-α release in culture supernatants.
THP-1 and PBMCs (2×10^5 cells/well) were plated in 96-well plate. The cells were pretreated with RSCL-0409 in DMSO 1 hr prior to TLR ligand treatment. Following 1 hr pre-treatment, the cells were treated with TLR ligands [TLR2, TLR5 and TLR6-75 ng/ml each, TLR3-75 μg/ml, TLR4-750 ng/ml, TLR7, TLR8 and TLR9-7.5 μg/ml) for 24 hrs. The culture supernatant were collected after the stipulated time and assayed for TNF-α release using a Duoset Enzyme-Linked ImmunoSorbent Assay (ELISA) detection Kit (R&D systems, MN 55413, USA; Cat: DY-210 E). Simultaneously supernatants were collected from cells treated with ligands without pre-treatment with RSCL-0409 and only RSCL-0409 without ligand treatment.
In general terms: ELISA stands for enzyme-linked immunosorbent assay.

Assay [5] relates to NF-κB. The assay is described as follows: NF-κB SEAP reporter assay in THP-1 CD14 Blue cells. The assay is classed as cell-based, human. Conditions: LPS 250 ng/ml, 24 hr. As for the experimental part: THP-1 CD14 Blue cells (Invivogen, San Diego, Calif., USA) transfected with a SEAP reporter construct in which the reporter expression was regulated by the NF-κB promoter were stimulated with LPS (250 ng/ml) with or without RSCL-0409 for 24 hr. […] The reporter activity was determined using Quanti Blue kit (Invivogen). The data (FIG. 8) is plotted as the relative change of reporter activity. NS; not significant, ** P value <0.01, *** P value <0.001 are statistics for Cells Vs RSCL-0409 treated and LPS treated vs. RSCL-0409 followed by LPS treatment respectively. These observations further confirm that the RSCL-0409 inhibits LPS induced TLR mediated activation of NF-κB transcription factor.

For `COc1ccc(OC2OC3COC(c4ccccc4)OC3C(OC3OC(COC(=O)CCC(C)=O)C(OC(=O)CCl)C(OC(C)=O)C3OC(C)=O)C2NC(=O)C(Cl)(Cl)Cl)cc1` [RSCL-0409, p-Methoxy phenyl-O-(2,3-di-O-acetyl-4-O-chloroacetyl-6-O-levulinoyl-β-D-glucopyranosyl)-(1-3)-2-deoxy-2-trichloroacetamido-4,6-O-benzylidene-α-D-glucopyranoside], in assay [1], the “IL-6 mRNA expression” value is recorded as “The same was observed with IL-6 also in a concentration dependent manner”. Moreover, the “phospho NF-κB p65 (FACS)” value in assay [2] (THP-1, 1 hr LPS, 50 μM) is “inhibitory role in NF-κB signaling”. For the same molecule, the “translocation of NF-κB to the nucleus” value in assay [2] (nuclear fractions of LPS stimulated THP-1 cells) was “blocked translocation of NF-κB into the nucleus”. The “TNF-α mRNA expression” value in assay [3] is listed as “down regulated TNF-α to almost control levels”. In addition, in assay [4], the “effect on TNF-α secretion” value is recorded as “no effect observed”. In addition, in assay [5], the “SEAP reporter activity (NF-κB promoter)” value is “blocked in a dose dependent manner”.
